Target: T1, ALK (baculovirus expressed human ALK kinase domain F1098-K1410) (Homo sapiens, UniProt Q9UM73)
T1 construct: baculovirus expressed human ALK kinase domain F1098-K1410; made in house
Test: Luciferase-Coupled Chemiluminescent Kinase assay (LCCA), ALK biochemical activity
Conditions: inhibition of ALK; mean values; 1 μM ATP, 4 μM poly-AEKY, 12 nM ALK, 2 hours ambient temperature
Description: ALK biochemical activity was assessed using a Luciferase-Coupled Chemiluminescent Kinase assay (LCCA) format in which kinase activity was measured as the percent ATP remaining following the kinase reaction. ATP remaining after the kinase reaction was detected by luciferase-luciferin-coupled chemiluminescence.
The reaction was initiated by mixing test compounds, 1 μM ATP, 4 μM poly-AEKY and 12 nM ALK (baculovirus expressed human ALK kinase domain F1098-K1410) in a 20 μL assay buffer ([…] pH 7.5, 10 mM MgCl2, 0.02% Triton X-100, 100 mM DTT, 2 mM MnCl2). The mixture was incubated at ambient temperature for 2 hours after which 20 μL luciferase-luciferin mix was added and the chemiluminescent signal read using a Wallac Victor^2 reader. The luciferase-luciferin mix consists of 50 mM HEPES, pH 7.8, 8.5 μg/mL oxalic acid (pH 7.8), 5 (or 50) mM DTT, 0.4% Triton X-100, 0.25 mg/mL coenzyme A, 63 μM AMP, 28 μg/mL luciferin and 40,000 units of light/mL luciferase.
Consumption of ATP by ALK can thus be quantified and utilized as a measure of inhibition of ALK activity by compounds described herein. By employing serial dilutions of compounds to be tested, the ability of test compounds to inhibit ALK activity can be determined.

T1 sequence (Q9UM73 1098-1410): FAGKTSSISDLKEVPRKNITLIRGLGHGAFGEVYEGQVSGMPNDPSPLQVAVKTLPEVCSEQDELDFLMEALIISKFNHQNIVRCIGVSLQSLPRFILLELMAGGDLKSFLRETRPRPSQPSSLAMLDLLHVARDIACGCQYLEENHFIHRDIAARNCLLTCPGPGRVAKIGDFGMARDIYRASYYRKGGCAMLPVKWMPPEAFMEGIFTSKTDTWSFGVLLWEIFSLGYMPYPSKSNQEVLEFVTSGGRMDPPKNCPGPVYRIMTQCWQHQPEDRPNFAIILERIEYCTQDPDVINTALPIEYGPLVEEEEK

Structure (SMILES) | IC50 [nM]
COc1cc2c(-c3ccc(O)cc3Cl)nc3[nH]nc(C)c3c2cc1OC [Example 96, 3-chloro-4-[1-methyl-7,8-bis(methyloxy)-3H-pyrazolo[3,4-c]isoquinolin-5-yl]phenol] | ≤ 99
COCCOc1ccc2c(-c3ccc(O)cc3)nc3[nH]nc(C)c3c2c1OCCOC [Example 97, 4-(1-methyl-8,9-bis{[2-(methyloxy)ethyl]oxy}-3H-pyrazolo[3,4-c]isoquinolin-5-yl)phenol] | ≤ 99
Cc1n[nH]c2nc(-c3ccc(O)cc3)c3ccccc3c12 [Example 98, 4-(1-methyl-3H-pyrazolo[3,4-c]isoquinolin-5-yl)phenol] | ≤ 99
Cc1n[nH]c2nc(-c3ccc(O)c(Cl)c3)c3ccccc3c12 [Example 99, 2-chloro-4-(1-methyl-3H-pyrazolo[3,4-c]isoquinolin-5-yl)phenol] | ≤ 99
Cc1n[nH]c2nc(-c3ccc(O)c(Br)c3)c3ccccc3c12 [Example 100, 2-bromo-4-(1-methyl-3H-pyrazolo[3,4-c]isoquinolin-5-yl)phenol] | ≤ 99
COc1cc2c(cc1C)c(-c1ccc(O)c(Cl)c1)nc1[nH]nc(C)c12 [Example 101, 2-chloro-4-[1,7-dimethyl-8-(methyloxy)-3H-pyrazolo[3,4-c]isoquinolin-5-yl]phenol] | ≤ 99
COc1cc2c(cc1C)c(-c1ccc(O)c(Br)c1)nc1[nH]nc(C)c12 [Example 102, 2-bromo-4-[1,7-dimethyl-8-(methyloxy)-3H-pyrazolo[3,4-c]isoquinolin-5-yl]phenol] | ≤ 99
COc1cc2c(-c3ccc(O)c(Cl)c3)nc3[nH]nc(C)c3c2cc1OCC1CCN(C(C)C)CC1 [Example 103, 2-chloro-4-[1-methyl-8-({[1-(1-methylethyl)piperidin-4-yl]methyl}oxy)-7-(methyloxy)-3H-pyrazolo[3,4-c]isoquinolin-5-yl]phenol] | ≤ 99
COc1ccc2c(-c3ccc(O)cc3)nc3[nH]nc(C)c3c2c1Br [Example 104, 4-[9-bromo-1-methyl-8-(methyloxy)-3H-pyrazolo[3,4-c]isoquinolin-5-yl]phenol] | ≤ 99
COc1c(Cl)cc2c(-c3ccc(O)cc3)nc3[nH]nc(C)c3c2c1F [Example 105, 4-[7-chloro-9-fluoro-1-methyl-8-(methyloxy)-3H-pyrazolo[3,4-c]isoquinolin-5-yl]phenol] | 100 to 999
COc1cc2c(-c3ccc(O)c(Cl)c3)nc3[nH]nc(C)c3c2cc1OCC1CCN(C(C)=O)CC1 [Example 106, 4-[8-{[(1-acetylpiperidin-4-yl)methyl]oxy}-1-methyl-7-(methyloxy)-3H-pyrazolo[3,4-c]isoquinolin-5-yl]-2-chlorophenol] | ≤ 99
COc1ccc2c(-c3ccc(O)c(Br)c3)nc3[nH]nc(C)c3c2c1OCC1CCN(C(C)=O)CC1 [Example 107, 4-[9-{[(1-acetylpiperidin-4-yl)methyl]oxy}-1-methyl-8-(methyloxy)-3H-pyrazolo[3,4-c]isoquinolin-5-yl]-2-bromophenol] | ≤ 99
COCCOc1ccc2c(-c3ccc(O)c(Cl)c3)nc3[nH]nc(C)c3c2c1OC [Example 108, 2-chloro-4-(1-methyl-9-(methyloxy)-8-{[2-(methyloxy)ethyl]oxy}-3H-pyrazolo[3,4-c]isoquinolin-5-yl)phenol] | ≤ 99
COc1cc2c(cc1F)c(-c1ccc(O)cc1)nc1[nH]nc(C)c12 [Example 109, 4-[7-fluoro-1-methyl-8-(methyloxy)-3H-pyrazolo[3,4-c]isoquinolin-5-yl]phenol] | 100 to 999
COCCOc1ccc2c(-c3ccc(O)c(Cl)c3)nc3[nH]nc(C)c3c2c1OCCOC [Example 110, 2-chloro-4-(1-methyl-8,9-bis{[2-(methyloxy)ethyl]oxy}-3H-pyrazolo[3,4-c]isoquinolin-5-yl)phenol] | ≤ 99

Further lines, results first:

IC50 [nM] | Structure (SMILES)
≤ 99 | COCCOc1ccc2c(-c3ccc(O)c(Br)c3)nc3[nH]nc(C)c3c2c1OCCOC [Example 111, 2-bromo-4-(1-methyl-8,9-bis{[2-(methyloxy)ethyl]oxy}-3H-pyrazolo[3,4-c]isoquinolin-5-yl)phenol]
≤ 99 | COCCOc1c(OC)ccc2c(-c3ccc(O)c(Cl)c3)nc3[nH]nc(C)c3c12 [Example 112, 2-chloro-4-(1-methyl-8-(methyloxy)-9-{[2-(methyloxy)ethyl]oxy}-3H-pyrazolo[3,4-c]isoquinolin-5-yl)phenol]
≤ 99 | COCCOc1c(OC)ccc2c(-c3ccc(O)c(Br)c3)nc3[nH]nc(C)c3c12 [Example 113, 2-bromo-4-(1-methyl-8-(methyloxy)-9-{[2-(methyloxy)ethyl]oxy}-3H-pyrazolo[3,4-c]isoquinolin-5-yl)phenol]
≤ 99 | COc1cc2c(-c3ccc(O)cc3F)nc3[nH]nc(C)c3c2cc1OC [Example 114, 3-fluoro-4-[1-methyl-7,8-bis(methyloxy)-3H-pyrazolo[3,4-c]isoquinolin-5-yl]phenol]
≤ 99 | COCCOc1cc2c(cc1OC)c(-c1ccc(O)c(Cl)c1)nc1[nH]nc(C)c12 [Example 115, 2-chloro-4-(1-methyl-7-(methyloxy)-8-{[2-(methyloxy)ethyl]oxy}-3H-pyrazolo[3,4-c]isoquinolin-5-yl)phenol]
≤ 99 | COCCOc1cc2c(cc1OC)c(-c1ccc(O)c(Br)c1)nc1[nH]nc(C)c12 [Example 116, 2-bromo-4-(1-methyl-7-(methyloxy)-8-{[2-(methyloxy)ethyl]oxy}-3H-pyrazolo[3,4-c]isoquinolin-5-yl)phenol]
100 to 999 | COCCOc1cc2c(-c3ccc(O)c(Cl)c3)nc3[nH]nc(C)c3c2cc1OCCOC [Example 117, 2-chloro-4-(1-methyl-7,8-bis{[2-(methyloxy)ethyl]oxy}-3H-pyrazolo[3,4-c]isoquinolin-5-yl)phenol]
100 to 999 | COCCOc1cc2c(-c3ccc(O)c(Br)c3)nc3[nH]nc(C)c3c2cc1OCCOC [Example 118, 2-bromo-4-(1-methyl-7,8-bis{[2-(methyloxy)ethyl]oxy}-3H-pyrazolo[3,4-c]isoquinolin-5-yl)phenol]
≤ 99 | COCCOc1cc(F)c2c(-c3ccc(O)cc3)nc3[nH]nc(C)c3c2c1F [Example 120, 4-(6,9-difluoro-1-methyl-8-{[2-(methyloxy)ethyl]oxy}-3H-pyrazolo[3,4-c]isoquinolin-5-yl)phenol]
≤ 99 | COc1cc2c(-c3cc(Cl)c(O)cc3F)nc3[nH]nc(C)c3c2cc1OC [Example 121, 2-chloro-5-fluoro-4-[1-methyl-7,8-bis(methyloxy)-3H-pyrazolo[3,4-c]isoquinolin-5-yl]phenol]
≤ 99 | COc1cc2c(-c3cc(Br)c(O)cc3F)nc3[nH]nc(C)c3c2cc1OC [Example 122, 2-bromo-5-fluoro-4-[1-methyl-7,8-bis(methyloxy)-3H-pyrazolo[3,4-c]isoquinolin-5-yl]phenol]
100 to 999 | COc1cc2c(-c3ccc(O)cc3)cc3[nH]nc(C)c3c2c(F)c1OC [Example 123, 4-[9-fluoro-1-methyl-7,8-bis(methyloxy)-3H-benzo[e]indazol-5-yl]phenol]
≤ 99 | COCCOc1cc2c(cc1OC)c(-c1ccc(O)cc1F)nc1[nH]nc(C)c12 [Example 125, 3-fluoro-4-(1-methyl-7-(methyloxy)-8-{[2-(methyloxy)ethyl]oxy}-3H-pyrazolo[3,4-c]isoquinolin-5-yl)phenol]
≤ 99 | COCCOc1cc(F)c2c(-c3ccc(O)cc3F)nc3[nH]nc(C)c3c2c1F [Example 126, 4-(6,9-difluoro-1-methyl-8-{[2-(methyloxy)ethyl]oxy}-3H-pyrazolo[3,4-c]isoquinolin-5-yl)-3-fluorophenol]
≤ 99 | COCCOc1cc(F)c2c(-c3ccc(O)c(Cl)c3)nc3[nH]nc(C)c3c2c1F [Example 127, 2-chloro-4-(6,9-difluoro-1-methyl-8-{[2-(methyloxy)ethyl]oxy}-3H-pyrazolo[3,4-c]isoquinolin-5-yl)phenol]
100 to 999 | CCOc1cc2c(cc1OC)c(-c1ccc(O)c(Cl)c1)nc1[nH]nc(C)c12 [Example 128, 2-chloro-4-[8-(ethyloxy)-1-methyl-7-(methyloxy)-3H-pyrazolo[3,4-c]isoquinolin-5-yl]phenol]
100 to 999 | COc1cc2c(c(-c3ccc(O)c(Cl)c3)nc3[nH]nc(C)c32)c(Cl)c1OC [Example 129, 2-chloro-4-[6-chloro-1-methyl-7,8-bis(methyloxy)-3H-pyrazolo[3,4-c]isoquinolin-5-yl]phenol]
≤ 99 | COCCOc1ccc2c(-c3ccc(O)cc3F)nc3[nH]nc(C)c3c2c1OC [Example 130, 3-fluoro-4-(1-methyl-9-(methyloxy)-8-{[2-(methyloxy)ethyl]oxy}-3H-pyrazolo[3,4-c]isoquinolin-5-yl)phenol]
≤ 99 | COCCOc1cc2c(cc1C)c(-c1ccc(O)c(Cl)c1)nc1[nH]nc(C)c12 [Example 131, 2-chloro-4-(1,7-dimethyl-8-{[2-(methyloxy)ethyl]oxy}-3H-pyrazolo[3,4-c]isoquinolin-5-yl)phenol]
≤ 99 | COCCOc1cc2c(c(-c3ccc(O)cc3F)nc3[nH]nc(C)c32)c(F)c1OC [Example 132, 3-fluoro-4-(6-fluoro-1-methyl-7-(methyloxy)-8-{[2-(methyloxy)ethyl]oxy}-3H-pyrazolo[3,4-c]isoquinolin-5-yl)phenol]
